Patent US9538734B2, “Germ cell ablation compounds and uses thereof” (THE GENERAL HOSPITAL CORPORATION, priority 2013, dated 2017)

How the values were obtained:
[1] = system: primordial germ cells (PGCs); assay: PGC ablation in transgenic zebrafish embryos expressing GFP in PGCs (small molecule screen); type: in vivo
Experimental: (§1) In an effort to discover pathways essential for PGC maintenance, a small molecule screen for compounds that promote disappearance of PGCs was performed. The screen was performed with transgenic zebrafish embryos that express GFP exclusively in PGCs. Of 7,000 small molecules screened, three caused disappearance of PGCs without causing other observable changes in embryonic development. The three PGC-ablating compounds were close structural analogs of each other, and the representative compound from this class was named primordazine (FIG. 1A). […] PGC loss was confirmed by multiple PGC lineage markers (FIG. 1B).
Optimization is driven primarily by potency, meaning that each compound acquired is tested for potency, and potency changes influence subsequent rounds of compound design. For testing compounds, 3-5 transgenic zebrafish embryos (expressing GFP from the vasa promoter) are placed in each well of clear-bottom, black-wall 96 well plates. Embryos are treated with DMSO or varying doses of a compound in two-fold dilutions from 8 uM to 16 nM, beginning at 2 h postfertilization. At 24 h, the plate is loaded onto the screening microscope, which systematically scans wells and captures fluorescent images of fish in each well. The efficacy of each compound dose in ablating PGCs is recorded, yielding an EC50 for each compound.

[2] = system: primordazine response element (PRE) of nanos1 3′ UTR; assay: Translation of injected GFP reporter RNA fused to nanos1 3′ UTR / PRE; type: in vivo, zebrafish; conditions: for translation of EGFP: EGFP mRNA fused to 120 bases of nanos1 3′UTR
Excerpt: During the process of confirming PGC loss in primordazine-treated embryos, it was discovered that GFP translation was highly sensitive to primordazine treatment when fused to the 3′ UTR of the nanos1 gene, but not when fused to other 3′ UTRs. The 3′ UTR of the nanos1 gene was examined for elements capable of conferring primordazine sensitivity. […] This sequence is called the Primordazine Response Element (PRE). […] When other sequences from the nanos1 3′ UTR are used, primordazine has no effect on GFP expression.
mRNA translation is tested using the same GFP reporter depicted in FIG. 2. This reporter consists of GFP mRNA fused to the nanos1 3′ UTR with a mutant miR-430 site. When injected into one-cell stage zebrafish, GFP is expressed in both germ and somatic cells (Giraldez, A. J. et al. Zebrafish MiR-430 promotes deadenylation and clearance of maternal mRNAs. Science 312, 75-79 (2006); Mishima, Y. et al. Differential regulation of germline mRNAs in soma and germ cells by zebrafish miR-430. Curr Biol 16, 2135-2142 (2006)). […] As such, the quantity of mRNA is increased as detected by qPCR, but the quantity of GFP protein diminishes, as determined by quantitative fluorescence microscopy (see FIG. 2 for an example). Mutant animals were injected with the GFP reporter mRNA and quantify the amount of mRNA and protein present at 11 and 24 hours. Attention was paid to the effects of the mutations on baseline translation of GFP and also for effects of the mutations on responsiveness to primordazine.

nanos1 mRNA = nanos1 mRNA level (quantitative PCR) and localization (fluorescent in situ hybridization, confocal microscopy); type: in vivo, zebrafish
Excerpt: Therefore, mRNA destabilization is not the mechanism by which primordazine blocks nanos1 expression. Next, fluorescent in situ hybridization and confocal microscopy were used to examine the localization of nanos1 mRNA within germ cells.

GFP labeled PGCs = assay: Count of GFP labeled PGCs in tilapia embryos exposed to primordazine; type: in vivo, Tilapia (Oreochromis niloticus); conditions: for reduction in PGCs number: 5 uM; for GFP labeled cells in midline trunk region: 1 cell stage embryos, 3 day old; for reduction in PGCs number compared to control: after 3 days, 28° C.
Experimental: Tilapia (Oreochromis niloticus) lines used in this study are derived from a Brazilian strain obtained from a US commercial producer. To study PGCs, assays were performed on embryos from female tilapia carrying the Zpc5:eGFP:tnos 3′UTR construct which produce embryos with GFP labeled PGCs. The tilapia Zpc5 promoter is an oocyte specific promoter, active during oogenesis prior to the first meiotic division. As such, all embryos from an heterozygous transgenic female inherit the eGFP:tnos 3′UTR mRNA, which localizes and become expressed exclusively in PGCs through the action of cis-acting RNA element in their 3′UTR (tilapia nanos 3′UTR). In this system GFP expression in the embryo is strictly maternal. Thus, similarly to zebrafish nos1 3′UTR, tilapia nanos 3′ UTR (tnos 3′UTR) can deliver mRNA and subsequently heterologous protein expression to the PGCs in developing embryos. In this line, GFP expression is first observed in 2 day old embryos, progeny of transgenic female. At 3 days post fertilization (dpf) in 28° C. water, GFP-expressing cells coalesced in two bilateral rows on the midline above the intestine (FIG. 41A). The GFP labeled primordial germ cell can be visualized for up to 6 days post fertilization but fluorescence starts to fade between days 4 & 5. Primordazine treatment: Embryos at different developmental stages were placed into hatching water at 28° C. in plastic Petri dishes with gentle stirring. The first cell division takes place approximately two hours post fertilization (hpf) and gastrulation begins at around 10 hpf. We transferred pre-gastrula (2 hpf, 5 hpf) and post-gastrula embryos (15 hpf) to 96 well plates (1-2 embryos/well) prefilled with hatching water supplemented with 2 fold dilution series of primordazine from 20 uM to 2.5 uM or DMSO (control). The 96 well plate was placed under gentle stirring in a temperature control room at 28° C. At time intervals, embryos were analyzed for GFP expression under a fluorescence dissecting microscope (Zeiss Stereo Discovery.V8) equipped with a GFP filter set. To quantify primordazine activity, 3 day old embryos were placed in fresh water and PGCs were counted. At this stage, in the non-treated control group, approximately 95% of PGCs have migrated to the genital ridges.

DHX9 = assay: Primordazine affinity matrix pull-down with iTRAQ; type: binding; conditions: whole zebrafish lysates, with and without competition from free primordazine
Experimental: A primordazine derivative was synthesized in which an 8-atom linker was appended from the indole nitrogen, terminating in a carboxylic acid (FIG. 4B). […] The derivatized primordazine was then coupled to Affi-Gel 102 agarose beads, generating an affinity matrix (FIG. 4C). The affinity matrix was incubated with whole zebrafish lysates with and without competition from free primordazine, and iTRAQ was used to identify any primordazine-binding proteins. An RNA helicase, DHX9, was identified as binding specifically to the affinity matrix, along with two RNA-binding adapter proteins HNRNPH1 and HNRNPA2B1.

dCTPP1 = molecular target: T1, dCTPP1 (Homo sapiens, UniProt Q9H773); assay: Western blot confirmation of binding to primordazine beads
T1 sequence (Q9H773 1-170): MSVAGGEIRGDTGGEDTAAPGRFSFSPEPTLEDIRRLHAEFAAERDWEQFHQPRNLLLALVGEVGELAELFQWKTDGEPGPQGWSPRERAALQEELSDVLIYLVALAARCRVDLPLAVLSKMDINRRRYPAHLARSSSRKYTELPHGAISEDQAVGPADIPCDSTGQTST

pgam5 = molecular target: T2, pgam5 (Homo sapiens, UniProt Q96HS1); assay: Western blot confirmation of binding to primordazine
T2 sequence (Q96HS1 1-289): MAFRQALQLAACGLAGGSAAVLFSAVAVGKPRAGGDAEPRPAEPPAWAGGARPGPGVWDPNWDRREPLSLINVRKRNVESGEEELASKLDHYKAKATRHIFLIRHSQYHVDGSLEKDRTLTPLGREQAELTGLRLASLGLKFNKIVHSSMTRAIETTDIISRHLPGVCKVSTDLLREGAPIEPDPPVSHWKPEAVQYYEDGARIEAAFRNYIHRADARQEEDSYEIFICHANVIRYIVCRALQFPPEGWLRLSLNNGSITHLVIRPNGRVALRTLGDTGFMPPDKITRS

zebrafish embryos [3] = assay: Sex of adults after embryonic treatment; type: in vivo; conditions: embryos treated during early development
zebrafish embryos [4] = assay: Observable effects on embryonic development, apoptosis; type: in vivo
Experimental: as §1

PRE-containing mRNAs = assay: Translation of GFP mRNA tagged with nanos1 3′UTR in mammalian cell lines (western blotting); type: cell-based; conditions: GFP mRNA tagged with 120 bases from nanos1 3′UTR, transfected mammalian cell lines
Experimental: GFP mRNA was tagged with 120 bases from the nanos1 3′UTR and transfected into various mammalian cell lines. The effect of primordazine was determined by western blotting.

deadend 3′UTR = assay: Translation of GFP message tagged with fragments of the deadend 3′UTR; conditions: in vivo
Excerpt: FIG. 26 illustrates that, in addition to regulating the translation of proteins containing elements from the nanos1 3′ UTR, primordazine blocks translation of proteins from mRNAs containing the deadend 3′UTR.

CCC(Sc1nnc2c3ccccc3n(CC)c2n1)C(=O)Nc1cccc(C(C)=O)c1 (centres unmarked) [primordazine]
concentration for maximal efficacy of germ cell ablation ([1]; egg / hatching water concentration): 6 µM
PGC-ablating activity ([1]; zebrafish embryos, GFP in PGCs): ablates PGCs in a dose-dependent manner
effective concentration in zebrafish embryos ([1]; zebrafish, in vivo): high nanomolar to low micromolar
translation of EGFP ([2]; absence of polyadenylation): effectively blocked translation
translation of EGFP ([2]; polyadenylated in vitro prior to injection): failed to block translation
translation of GFP protein ([2]; GFP mRNA followed by the nanos1 3′ UTR): prevents its translation
stability of GFP reporter mRNA ([2]; GFP mRNA with nanos1 3′ UTR): stabilizes the mRNA
translation of GFP RNA ([2]; PRE placed in its 3′ UTR, RNA injected into zebrafish): blocked
GFP expression ([2]; other sequences from the nanos1 3′ UTR): no effect
localization of nanos1 mRNA within germ cells (nanos1 mRNA; fluorescent in situ hybridization, confocal microscopy): became localized to discrete puncta
nanos1 mRNA levels (nanos1 mRNA; quantitative PCR): no decrease
reduction in PGCs number (GFP labeled PGCs; later time point (13 hour old embryos)): 41%
reduction in PGCs number (GFP labeled PGCs; treatment begins at 2 hpf): 72%
GFP labeled cells in midline trunk region (GFP labeled PGCs; 10 uM): marked reduction in number
reduction in PGCs number compared to control (GFP labeled PGCs; 10 uM, 5 hours old embryos): 47%
GFP labeled cells in midline trunk region (GFP labeled PGCs; 20 uM): complete disappearance
reduction in PGCs number compared to control (GFP labeled PGCs; 20 uM, 5 hours old embryos): 67%
level of GFP intensity in PGCs (GFP labeled PGCs; 5 hours old embryos): reduced
binding of DHX9 (DHX9): Binds
binding of dCTPP1 (dCTPP1): bind
binding of pgam5 (pgam5): bind
sex when adult (zebrafish embryos [3]): tend to be males
apoptosis (zebrafish embryos [4]; FIG. 12): does not cause apoptosis
effect on development or organogenesis (zebrafish embryos [4]; effective doses): no visible effect
translation of PRE-containing mRNAs (PRE-containing mRNAs): inhibits translation
translation of EGFP from mRNAs containing the deadend 3′UTR (deadend 3′UTR): blocks the translation
